Each structure is given as a SMILES string.

These results are taken from US12595253B2, “Benzamides of pyrazolylamino-pyrimidinyl derivatives, and compositions and methods thereof” (LYNK PHARMACEUTICALS CO. LTD., priority 2019, dated 2026).

What all share (format): biochemical
One experiment deals with T1, JAK2 (Homo sapiens, UniProt O60674).
T1 construct: purchased Carna Biosciences
Description: JAK2 microfluidic kinase assay (Caliper EZ Reader II, FAM labeled peptide substrate). The procedure, abridged: (§1)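 3-fold serial dilutions, top 5 μM, 1% DMSO final; 10 min preincubation with enzyme, RT. Buffer: 50 mM HEPES, 0.01% Brij35, 10 mM MgCl2, 2 mM DTT. Enzyme batch tuned to 10% peptide conversion. EDTA stop, mobility-shift readout, IC50 fit.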

In another experiment the target is T2, JAK1 (Homo sapiens, UniProt P23458).
T2 construct: purchased Carna Biosciences
T2 sequence (P23458 whole entry): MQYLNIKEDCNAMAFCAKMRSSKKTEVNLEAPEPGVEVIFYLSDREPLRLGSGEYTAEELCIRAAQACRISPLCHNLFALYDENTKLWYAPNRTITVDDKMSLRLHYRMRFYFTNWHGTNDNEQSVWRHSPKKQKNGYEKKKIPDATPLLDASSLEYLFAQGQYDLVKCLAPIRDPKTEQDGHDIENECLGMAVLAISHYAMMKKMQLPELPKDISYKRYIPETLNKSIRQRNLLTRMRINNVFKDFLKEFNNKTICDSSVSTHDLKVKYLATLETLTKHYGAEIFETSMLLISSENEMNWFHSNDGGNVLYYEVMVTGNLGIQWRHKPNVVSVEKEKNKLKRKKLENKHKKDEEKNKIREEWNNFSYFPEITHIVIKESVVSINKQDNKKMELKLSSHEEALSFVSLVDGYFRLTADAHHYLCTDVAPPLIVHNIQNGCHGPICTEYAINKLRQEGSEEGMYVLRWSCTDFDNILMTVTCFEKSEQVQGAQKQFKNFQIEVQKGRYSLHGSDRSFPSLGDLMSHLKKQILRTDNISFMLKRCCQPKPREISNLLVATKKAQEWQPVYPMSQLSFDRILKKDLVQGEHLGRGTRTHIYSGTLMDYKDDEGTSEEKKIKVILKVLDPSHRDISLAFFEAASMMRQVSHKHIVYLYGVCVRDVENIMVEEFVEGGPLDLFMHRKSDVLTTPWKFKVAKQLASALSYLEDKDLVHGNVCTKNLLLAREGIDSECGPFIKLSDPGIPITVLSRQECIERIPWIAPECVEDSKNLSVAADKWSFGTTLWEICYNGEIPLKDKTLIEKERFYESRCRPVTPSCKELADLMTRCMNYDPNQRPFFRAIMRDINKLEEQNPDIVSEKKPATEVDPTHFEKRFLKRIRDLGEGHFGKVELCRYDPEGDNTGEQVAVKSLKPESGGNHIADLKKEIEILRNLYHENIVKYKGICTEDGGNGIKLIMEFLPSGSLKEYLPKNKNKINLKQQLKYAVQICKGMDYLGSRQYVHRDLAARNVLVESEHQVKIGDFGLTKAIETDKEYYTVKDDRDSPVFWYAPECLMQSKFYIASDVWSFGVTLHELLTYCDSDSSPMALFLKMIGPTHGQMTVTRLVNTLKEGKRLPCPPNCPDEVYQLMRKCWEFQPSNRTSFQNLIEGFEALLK
Description: JAK1 microfluidic kinase assay (Caliper EZ Reader II, FAM labeled peptide substrate). The method in brief:
as §1

A further experiment concerns the target T3, JAK2V617F (Homo sapiens, UniProt O60674, V617F).
T3 construct: purchased Carna Biosciences
Description: JAK2V617F microfluidic kinase assay (Caliper EZ Reader II, FAM labeled peptide substrate). The settings on record: JAK2V617F 2.5 nM, 1 mM ATP. The procedure, abridged: as §1

Setting [1] is: IC50 JAK2 ([…]) (1 mM ATP), 1 mM ATP.
The mark [2] stands for this setting: IC50 JAK2 ([…]) (Km ATP), Km ATP.
Setting [3] is: IC50 JAK1 (5 nM) (1 m MATP), JAK1 5 nM, 1 mM ATP.

T3 sequence (O60674 whole entry V617F): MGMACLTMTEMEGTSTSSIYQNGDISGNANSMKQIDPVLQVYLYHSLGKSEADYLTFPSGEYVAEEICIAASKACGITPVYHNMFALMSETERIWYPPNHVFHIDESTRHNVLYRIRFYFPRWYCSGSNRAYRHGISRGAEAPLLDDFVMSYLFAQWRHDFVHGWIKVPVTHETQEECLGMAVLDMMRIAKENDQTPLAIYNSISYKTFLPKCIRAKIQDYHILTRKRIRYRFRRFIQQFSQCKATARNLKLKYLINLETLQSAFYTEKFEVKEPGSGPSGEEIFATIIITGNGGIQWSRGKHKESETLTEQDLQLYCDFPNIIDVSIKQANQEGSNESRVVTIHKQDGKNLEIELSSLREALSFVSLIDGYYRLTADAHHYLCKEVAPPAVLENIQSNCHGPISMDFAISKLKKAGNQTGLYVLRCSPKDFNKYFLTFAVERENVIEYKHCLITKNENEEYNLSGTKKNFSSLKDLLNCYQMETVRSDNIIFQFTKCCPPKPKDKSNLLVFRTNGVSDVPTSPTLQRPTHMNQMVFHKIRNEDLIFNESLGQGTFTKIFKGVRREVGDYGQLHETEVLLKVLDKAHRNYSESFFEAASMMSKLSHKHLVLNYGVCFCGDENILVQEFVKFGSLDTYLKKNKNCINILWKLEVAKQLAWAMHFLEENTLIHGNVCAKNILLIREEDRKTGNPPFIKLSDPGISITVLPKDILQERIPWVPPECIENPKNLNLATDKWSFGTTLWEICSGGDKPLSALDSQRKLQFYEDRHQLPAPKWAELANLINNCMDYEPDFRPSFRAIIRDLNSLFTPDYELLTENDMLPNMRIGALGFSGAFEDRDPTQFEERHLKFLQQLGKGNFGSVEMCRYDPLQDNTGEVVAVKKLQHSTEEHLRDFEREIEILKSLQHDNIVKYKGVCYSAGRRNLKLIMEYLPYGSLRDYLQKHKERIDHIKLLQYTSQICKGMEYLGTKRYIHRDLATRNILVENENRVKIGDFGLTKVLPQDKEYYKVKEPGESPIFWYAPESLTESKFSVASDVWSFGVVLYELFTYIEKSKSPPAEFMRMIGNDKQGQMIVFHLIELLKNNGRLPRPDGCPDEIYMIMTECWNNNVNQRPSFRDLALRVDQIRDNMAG
T1 sequence (O60674 whole entry): as the sequence (O60674 whole entry V617F) above, with F617V counted along it

Consider `Cc1cnc(Nc2cnn(C3CCN(C(=O)NC(C)(C)C)CC3)c2)nc1-c1ccc(C(=O)NCC#N)cc1` [Example 3, N-(tert-Butyl)-4-(4-((4-(4-((cyanomethyl)carbamoyl)phenyl)-5-methylpyrimidin-2-yl)amino)-1H-pyrazol-1-yl)piperidine-1-carboxamide], for which the IC50 was less than 0.25 nM against JAK2 (setting [1]), less than 0.25 nM on JAK2 (setting [2]), 17.1 nM against JAK1 (setting [3]) and 5.26 nM against JAK2V617F.

Regarding `Cc1cnc(Nc2cnn(C)c2)nc1-c1ccc(C(=O)N[C@H]2C[C@@H](C#N)C2)cc1` [Example 16, N-((cis)-3-Cyanocyclobutyl)-4-(5-methyl-2-((1-methyl-1H-pyrazol-4-yl)amino)pyrimidin-4-yl)benzamide], the IC50 amounted to 13.6 nM against JAK2 (setting [2]), 124 nM at JAK1 (setting [3]) and 796 nM at JAK2V617F.

`Cc1cnc(Nc2cnn(C3CCN(CC(F)(F)F)CC3)c2)nc1-c1ccc(C(=O)NCC#N)cc1` [Example 22, N-(Cyanomethyl)-4-(5-methyl-2-((1-(1-(2,2,2-trifluoroethyl)piperidin-4-yl)-1H-pyrazol-4-yl)amino)pyrimidin-4-yl)benzamide]: the IC50 at JAK2 (setting [1]) was 1.59 nM; at JAK2 (setting [2]), 0.43 nM; against JAK1 (IC50 JAK1 (10 nM) (Km ATP), JAK1 10 nM, Km ATP), 2.37 nM; on JAK2V617F, 46.1 nM.

Regarding `Cc1cnc(Nc2cnn(C3CCOCC3)c2)nc1-c1ccc(C(=O)N2CC(C#N)C2)cc1` [Example 31, 1-(4-(5-Methyl-2-((1-(tetrahydro-2H-pyran-4-yl)-1H-pyrazol-4-yl)amino)pyrimidin-4-yl)benzoyl)azetidine-3-carbonitrile], the IC50 against JAK2 (setting [1]) amounted to 71.7 nM; against JAK2 (setting [2]) it was 2.07 nM; at JAK1 (setting [3]) it was 235 nM; against JAK2V617F, 131 nM.

As to `Cc1cnc(Nc2cnn(CC#N)c2)nc1-c1ccc(C(=O)N[C@@H](C)C#N)cc1` [Example 40, (S)—N-(1-cyanoethyl)-4-(2-((1-(cyanomethyl)-1H-pyrazol-4-yl)amino)-5-methylpyrimidin-4-yl)benzamide], the figures for the IC50 at JAK2 (setting [1]), at JAK1 (setting [3]) and on JAK2V617F were 15 nM, 19.1 nM and 92.3 nM, respectively.

`Cc1cnc(Nc2cnn([C@H]3CC[C@@H](C#N)CC3)c2)nc1-c1ccc(C(=O)NCC(F)(F)F)cc1` [Example 86, 4-(2-((1-(Cis-4-cyanocyclohexyl)-1H-pyrazol-4-yl)amino)-5-methylpyrimidin-4-yl)-N-(2,2,2-trifluoroethyl)benzamide]: the IC50 came to 1.21 nM against JAK2 (setting [1]), 14.3 nM at JAK1 (setting [3]) and 4.91 nM against JAK2V617F.

In the case of `Cc1cnc(Nc2cnn([C@H]3CC[C@H](C#N)CC3)c2)nc1-c1ccc(C(=O)NCC(F)(F)F)cc1` [Example 87, 4-(2-((1-(Trans-4-cyanocyclohexyl)-1H-pyrazol-4-yl)amino)-5-methylpyrimidin4-yl)-N-(2,2,2-trifluoroethyl)benzamide], the IC50 was less than 0.25 nM against JAK2 (setting [1]), 9 nM at JAK1 (setting [3]) and 0.65 nM against JAK2V617F.

With `Cc1cnc(Nc2cnn(C3CCCCC3)c2)nc1-c1ccc(C(=O)N[C@@H](C)C#N)cc1` [Example 89, (S)—N-(1-cyanoethyl)-4-(2-((1-cyclohexyl-1H-pyrazol-4-yl)amino)-5-methylpyrimidin-4-yl)benzamide], the IC50 against JAK2 (setting [1]) is less than 0.25 nM; on JAK1 (setting [3]), 4.78 nM; against JAK2V617F it was 10.1 nM.

Take `CO[C@H]1CC[C@@H](n2cc(Nc3ncc(C)c(-c4ccc(C(=O)N[C@@H](C)C#N)cc4)n3)cn2)CC1` [Example 90, N—((S)-1-cyanoethyl)-4-(2-((1-(cis-4-methoxycyclohexyl)-1H-pyrazol-4-yl)amino)-5-methylpyrimidin-4-yl)benzamide]: the IC50 at JAK2 (setting [1]) worked out at 0.47 nM; on JAK1 (setting [3]), 13.1 nM; on JAK2V617F, 34.3 nM.

With `Cc1cnc(Nc2cnn(C3CC3)c2)nc1-c1ccc(C(=O)NCC2(C#N)CC2)cc1` [Example 93, N-((1-cyanocyclopropyl)methyl)-4-(2-((1-cyclopropyl-1H-pyrazol-4-yl)amino)-5-methylpyrimidin-4-yl)benzamide], the IC50 came to 44.3 nM against JAK2 (setting [1]), 1.39 nM at JAK2 (setting [2]), 20.1 nM against JAK1 (setting [3]) and 102 nM against JAK2V617F.

Turning to `Cc1cnc(Nc2cnn(C3CCN(C(=O)C4(C(F)(F)F)CC4)CC3)c2)nc1-c1ccc(C(=O)NCC#N)cc1` [Example 115, N-(Cyanomethyl)-4-(5-methyl-2-((1-(1-(1-(trifluoromethyl)cyclopropanecarbonyl)piperidin-4-yl)-1H-pyrazol-4-yl)amino)pyrimidin-4-yl)benzamide], the IC50 against JAK2 (setting [1]) is less than 0.25 nM; at JAK2 (setting [2]) it was less than 0.25 nM; against JAK1 (setting [3]), 20.8 nM; at JAK2V617F, 2.06 nM.

Regarding `Cn1cc(Nc2ncc(Cl)c(-c3ccc(C(=O)NCC(C)(C)C#N)cc3)n2)cn1` [Example 122, 4-(5-Chloro-2-((1-methyl-1H-pyrazol-4-yl)amino)pyrimidin-4-yl)-N-(2-cyano-2-methylpropyl)benzamide], the IC50 came to 1.1 nM against JAK2 (setting [2]), 19.3 nM against JAK1 (setting [3]) and 73.9 nM at JAK2V617F.

`Cc1cnc(Nc2cnn(C3CC3)c2)nc1-c1ccc(C(=O)N[C@@H](C)C#N)c(F)c1` [Example 129, (S)—N-(1-Cyanoethyl)-4-(2-((1-cyclopropyl-1H-pyrazol-4-yl)amino)-5-methylpyrimidin-4-yl)-2-fluorobenzamide]: the IC50 against JAK2 (setting [1]) was 49 nM; on JAK2 (setting [2]) it was 1.6 nM; at JAK1 (setting [3]), 39.9 nM; against JAK2V617F, 118 nM.

For `C[C@@H](C#N)NC(=O)c1ccc(-c2nc(Nc3cnn(C4CC4)c3)ncc2Cl)cc1F` [Example 137, (S)-4-(5-Chloro-2-((1-cyclopropyl-1H-pyrazol-4-yl)amino)pyrimidin-4-yl)-N-(1-cyanoethyl)-2-fluorobenzamide], the IC50 against JAK2 (setting [1]) was 46.4 nM; on JAK2 (setting [2]), 2.1 nM; on JAK1 (setting [3]), 37 nM; at JAK2V617F it was 92.3 nM.

On to `Cc1cnc(Nc2cnn(C3CCN(C(=O)C4CC4(F)F)CC3)c2)nc1-c1ccc(C(=O)NCC#N)cc1` (stereo not shown) [Example 145, N-(cyanomethyl)-4-(2-((1-(1-(2,2-difluorocyclopropanecarbonyl)piperidin-4-yl)-1H-pyrazol-4-yl)amino)-5-methylpyrimidin-4-yl)benzamide], for which the IC50 is 0.47 nM against JAK2 (setting [1]), 15.1 nM against JAK1 (setting [3]) and 6.97 nM against JAK2V617F.

Turning to `Cc1cnc(Nc2cnn(C3CCN(S(C)(=O)=O)CC3)c2)nc1-c1ccc(C(=O)NCC2(C#N)CC2)cc1` [Example 159, N-((1-cyanocyclopropyl)methyl)-4-(5-methyl-2-((1-(1-(methylsulfonyl)piperidin-4-yl)-1H-pyrazol-4-yl)amino)pyrimidin-4-yl)benzamide], the IC50 at JAK2 (setting [1]) came out at 4.82 nM; on JAK1 (setting [3]), 24.1 nM; against JAK2V617F, 36.7 nM.

With `Cc1cnc(Nc2cnn(C3CC3)c2)nc1-c1ccc(C(=O)N[C@@H](C)C#N)nc1` [Example 164, (S)—N-(1-cyanoethyl)-5-(2-((1-cyclopropyl-1H-pyrazol-4-yl)amino)-5-methylpyrimidin-4-yl)picolinamide], the IC50 against JAK2 (setting [1]) was 89.3 nM; against JAK1 (setting [3]) it was 36.6 nM; against JAK2V617F, 142 nM.

For `C[C@H](C#N)NC(=O)c1ccc(-c2nc(Nc3cnn(C4CC4)c3)ncc2Cl)cc1` [Example 196, (R)-4-(5-chloro-2-((1-cyclopropyl-1H-pyrazol-4-yl)amino)pyrimidin-4-yl)-N-(1-cyanoethyl)benzamide], the IC50 came out at 41.3 nM against JAK2 (setting [1]), 34.8 nM against JAK1 (setting [3]) and 71.6 nM against JAK2V617F.

With `CCCn1cc(Nc2ncc(Cl)c(-c3ccc(C(=O)N[C@@H](C)C#N)cc3)n2)cn1` [Example 227, (S)-4-(5-Chloro-2-((1-propyl-1H-pyrazol-4-yl)amino)pyrimidin-4-yl)-N-(1-cyanoethyl)benzamide], the IC50 on JAK2 (setting [1]) is 3.14 nM; against JAK1 (setting [3]), 4.08 nM; at JAK2V617F, 17.6 nM.

Take `CC(C)n1cc(Nc2ncc(Cl)c(-c3ccc(C(=O)N[C@@H](C)C#N)cc3)n2)cn1` [Example 228, (S)-4-(5-Chloro-2-((1-isopropyl-1H-pyrazol-4-yl)amino)pyrimidin-4-yl)-N-(1-cyanoethyl)benzamide]: the half-inhibitory concentration (IC50) against JAK2 (setting [1]) came out at 0.39 nM; against JAK1 (setting [3]), 5.89 nM; on JAK2V617F it was 22 nM.

With `CCn1cc(Nc2ncc(Cl)c(-c3ccc(C(=O)N[C@@H](C)C#N)cc3)n2)cn1` [Example 229, (S)-4-(5-Chloro-2-((1-ethyl-1H-pyrazol-4-yl)amino)pyrimidin-4-yl)-N-(1-cyanoethyl)benzamide], the 50% inhibitory concentration (IC50) turned out to be 1.68 nM at JAK2 (setting [1]), 3.68 nM against JAK1 (setting [3]) and 14.1 nM against JAK2V617F.

What is called IC50 is the midpoint of a concentration-inhibition curve. A low value points to greater potency in that assay.
